Data as given in patent publication US20230115176A1 (Ra Pharmaceuticals, Inc., priority 2019, published 2023).
≈ marks a conversion by molar mass, not a printed value.

Legend:
[1] = Kinetic solubility in PBS pH 7.4, HPLC-UV (Example 21, Table 27); format: physicochemical; details: phosphate buffered saline, aqueous buffer, kinetic from dmso stock, 0.5 M PBS, shaken minimum 24 h at approximately 25° C., HPLC-UV 270 nm
Experimental: Compounds were analyzed for kinetic solubility values using a standard kinetic solubility assay format. First, test compounds were dissolved in DMSO (Aldrich Chemical Co., Milwaukee, Wis., USA) at a concentration of 0.010 mol/L and used to prepare standard calibrators in DMSO solution. 500.0 μM, 250.0 μM, 125.0 μM, 62.5 μM, 31.2 μM, and 15.6 μM standards were prepared in a Greiner UV-Star clear V-bottom 96-well plate (Greiner-Bio One, Germany) for generating a standard curve. Using Alfa Aesar's Sodium phosphate, 0.2 M buffer solution, pH 7.4 (Alfa Aesar, Haverhill, Mass., USA), aqueous phosphate buffered saline (PBS) was prepared by diluting with Milli-Q water for a final concentration of 0.05 M. The pH of the solution was adjusted to 7.4±0.1 using 0.1 M hydrochloric acid (Fisher Scientific Waltham, Mass., USA) or 0.1 M aqueous sodium hydroxide (Fisher Scientific Waltham, Mass., USA).
10 μL of 0.010 mol/L DMSO test compound stock solutions were pipetted to separate 1.5 mL centrifuge tubes in triplicate. To these tubes, 190 μl of 0.05 M PBS was added. Each tube was gently vortexed for 5 sec. The tubes were shaken for a minimum of 24 h at approximately 25° C. After shaking, the solutions were transferred to 0.5 mL centrifuge filter tubes (MilliporeSigma, Burlington, Mass., USA) and centrifuged at 10,000 rpm for 5 min. After centrifugation, supernatants were collected and used for compound concentration analysis.
Compound concentrations in each solution were determined using high pressure liquid chromatography (HPLC) with ultraviolet (UV) detection and comparison with external standards. For HPLC, a Waters Acquity CSH Phenyl-Hexyl column (2.1 mm×50 mm, 1.7 μm) was used together with a generic gradient method on a Waters H-class system equipped with a diode array detector: Solvent A=0.1% formic acid in water, Solvent B=0.1% formic acid in acetonitrile (MilliporeSigma, Burlington, Mass., USA), flow=0.65 mL/min, (t=0 min: 95% A-5% B, t=4.75 min: 0% A-100% B, t=4.85 min: 0% A-100% B, t=4.86 min: 95% A-5% B, t=5 min: 95% A-5% B). UV quantifications were performed at 270 nm. Solution concentrations were calculated using Microsoft Excel.

Human C5 = biological target: T1, Human C5 (Homo sapiens, UniProt P01031); assay: Red blood cell (RBC) hemolysis assay, luminescent (Example 13, Table 22); format: cell-based; details: sheep EA cells, […] C5-depleted human serum, 0.5 nM human C5, 1 hour 37° C., luminescence; further: 1.5% C5-depleted human serum
T1 construct: purchased Complement Technology
T1 sequence (P01031 19-1676): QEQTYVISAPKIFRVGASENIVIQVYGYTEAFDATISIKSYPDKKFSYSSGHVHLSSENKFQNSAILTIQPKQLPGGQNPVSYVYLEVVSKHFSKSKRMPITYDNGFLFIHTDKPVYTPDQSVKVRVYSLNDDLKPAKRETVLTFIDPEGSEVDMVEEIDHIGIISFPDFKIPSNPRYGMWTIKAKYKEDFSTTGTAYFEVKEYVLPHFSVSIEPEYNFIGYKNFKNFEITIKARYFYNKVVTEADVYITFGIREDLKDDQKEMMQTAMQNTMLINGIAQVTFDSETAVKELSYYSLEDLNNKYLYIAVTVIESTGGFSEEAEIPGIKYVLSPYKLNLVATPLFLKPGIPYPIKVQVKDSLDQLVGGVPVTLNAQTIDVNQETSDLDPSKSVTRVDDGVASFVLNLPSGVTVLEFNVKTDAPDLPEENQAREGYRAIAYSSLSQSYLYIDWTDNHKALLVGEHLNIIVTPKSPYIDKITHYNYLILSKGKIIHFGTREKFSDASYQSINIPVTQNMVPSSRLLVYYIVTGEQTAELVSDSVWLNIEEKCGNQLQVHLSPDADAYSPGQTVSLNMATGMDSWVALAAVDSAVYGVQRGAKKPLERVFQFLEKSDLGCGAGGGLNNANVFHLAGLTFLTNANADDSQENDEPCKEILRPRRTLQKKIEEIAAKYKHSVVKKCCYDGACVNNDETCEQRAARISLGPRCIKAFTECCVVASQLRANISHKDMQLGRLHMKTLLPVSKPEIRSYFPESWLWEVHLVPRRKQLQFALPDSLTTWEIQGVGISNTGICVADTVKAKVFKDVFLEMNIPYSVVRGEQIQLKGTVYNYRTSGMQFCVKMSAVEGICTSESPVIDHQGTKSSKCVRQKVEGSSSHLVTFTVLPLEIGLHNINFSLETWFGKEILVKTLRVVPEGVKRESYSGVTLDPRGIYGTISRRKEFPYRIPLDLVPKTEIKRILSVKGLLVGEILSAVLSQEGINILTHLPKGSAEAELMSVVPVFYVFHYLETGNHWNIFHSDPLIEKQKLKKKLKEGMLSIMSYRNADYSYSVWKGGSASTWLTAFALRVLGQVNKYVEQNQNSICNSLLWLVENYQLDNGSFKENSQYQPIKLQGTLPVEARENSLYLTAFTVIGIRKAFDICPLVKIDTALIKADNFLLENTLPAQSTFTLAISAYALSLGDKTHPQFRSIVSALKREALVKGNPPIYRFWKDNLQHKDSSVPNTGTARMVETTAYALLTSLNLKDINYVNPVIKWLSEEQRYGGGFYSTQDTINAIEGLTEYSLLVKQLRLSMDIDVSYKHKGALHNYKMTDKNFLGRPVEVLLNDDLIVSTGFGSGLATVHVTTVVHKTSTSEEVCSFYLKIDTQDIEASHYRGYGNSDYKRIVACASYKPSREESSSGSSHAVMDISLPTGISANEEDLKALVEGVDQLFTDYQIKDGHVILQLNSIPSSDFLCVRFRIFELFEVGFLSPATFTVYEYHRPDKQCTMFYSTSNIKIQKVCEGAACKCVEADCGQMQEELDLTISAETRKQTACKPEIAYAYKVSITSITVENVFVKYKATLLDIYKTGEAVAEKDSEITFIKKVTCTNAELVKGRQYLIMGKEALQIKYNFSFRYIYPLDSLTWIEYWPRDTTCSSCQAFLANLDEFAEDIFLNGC
Excerpt: Compound CU0136 is a racemic mixture of Compound CU0186 and CU0187. Numbers in parenthesis following compound numbers indicate alternate enantiomers (as distinguished by retention time during chromatographical separation).

solubility kinetic [1] [µM] | SMILES | IC50 (Human C5) [nM]
435 (≈ 275 µg/mL) | COc1cc(CC(=O)N2CCOC(CN(C)C)C2)ccc1CN1CCCN(c2ccc(OC)c(OCCCC(C)(F)F)c2)C1=O (centres unmarked) [CU0170] | 20.1
60 (≈ 32.9 µg/mL) | CCCCCOc1cc(N2CCCN(Cc3ccc(CNC(=O)c4cccnn4)cc3OC)C2=O)ccc1OC [CU0505] | –
101 (≈ 51 µg/mL) | CCCCCOc1cc(N2CCCN(Cc3ccc(Cc4cnccn4)cc3OC)C2=O)ccc1OC [CU0614] | –
486 (≈ 308 µg/mL) | CCC(F)(F)CCOc1cc(N2CCCN(Cc3ccc(CC(=O)N4CCOC(CN(C)C)C4)cc3OC)C2=O)ccc1OC (centres unmarked) [CU0175] | 28.1
249 (≈ 138 µg/mL) | CCCCCOc1cc(N2CCCN(Cc3ccnc4c3c(Cl)cn4CCN3CCCC3)C2=O)ccc1OC [CU0564] | –
19 (≈ 12.6 µg/mL) | CCCCCOc1cc(N2CCCN(Cc3ccnc4c3c(Cl)cn4CCOC(=O)N3CCS(=O)(=O)CC3)C2=O)ccc1OC [CU0563] | –
179 (≈ 91.6 µg/mL) | CCCCCOc1cc(N2CCCN(Cc3ccc(C4CN(C)C(=O)O4)cc3OC)C2=O)ccc1OC (centres unmarked) [CU0618] | –
> 500 | CCCCCOc1cc(N2CCCN(Cc3ccnc4c3ccn4CC(=O)N(C)C3CCN(CC)C3)C2=O)ccc1OC (centres unmarked) [CU0257] | 16
436 (≈ 259 µg/mL) | CCCCCOc1cc(N2CCCN(Cc3ccnc4c3ccn4CC(=O)N3CCO[C@@H](COC)C3)C2=O)ccc1OC [CU0260] | 25
275 (≈ 168 µg/mL) | CCCCCOc1cc(N2CCCN(Cc3ccnc4c3c(Cl)cn4C(C)C(=O)N3CN(C(C)C)C3)C2=O)ccc1OC (centres unmarked) [CU0620] | –
440 (≈ 222 µg/mL) | CCCCCOc1cc(N2CCCN(Cc3ccc(Cc4ccccn4)cc3OC)C2=O)ccc1OC [CU0672] | –
< 10 | CCCCCOc1cc(N2CCCN(Cc3ccnc4c3c(Cl)cn4CCOCCNC(C)=O)C2=O)ccc1OC [CU0559] | –
12 (≈ 7.42 µg/mL) | CCCCCOc1cc(N2CCCN(Cc3ccnc4c3c(Cl)cn4CCN3CCS(=O)(=O)CC3)C2=O)ccc1OC [CU0551] | –
62 (≈ 34 µg/mL) | CCCCCOc1cc(N2CCCN(Cc3ccc(CNC(=O)c4ccnnc4)cc3OC)C2=O)ccc1OC [CU0503] | –
75 (≈ 40 µg/mL) | COc1ccc(N2CCCN(Cc3ccnc4c3ccn4CC(=O)N(C)C)C2=O)cc1OCCC[C@H]1C[C@@H]1C (racemic) [CU0752] | –
170 (≈ 84.6 µg/mL) | CCCCCOc1cc(N2CCCN(Cc3ccc(C4CNC(=O)O4)cc3OC)C2=O)ccc1OC (centres unmarked) [CU0611] | –
12 (≈ 6.67 µg/mL) | CCCCCOc1cc(N2CCCN(Cc3ccnc4c3c(Cl)cn4CC(=O)NC(C)C)C2=O)ccc1OC [CU0553] | –
< 10 | COc1cc(CNC(C)=O)ccc1CN1CCCN(c2ccc(OC)c(OCCCC3CCC3)c2)C1=O [CU0546] | –
< 10 | COc1ccc(N2CCCN(Cc3ccnc4c3c(Cl)cn4CC(=O)N3CCNC(=O)C3)C2=O)cc1OCCCC1CC1 [CU0522] | –
– | CCCCCOc1cc(N2CCCN(Cc3ccc(F)c(-c4cnn(C5CCN(C)CC5)c4)c3)C2=O)ccc1OC [CU0150] | 87.6
– | CCCCCOc1cc(N2CCCN(Cc3ccc(CCOC(C)C)cc3OC)C2=O)ccc1OC [CU0203] | 30

solubility kinetic [1] [µM] | SMILES | IC50 (Human C5) [nM]
– | CCCCCOc1cc(N2CCCN(Cc3cc(-c4cnn(C5CCN(C)CC5)c4)ccc3OC)C2=O)ccc1OC [CU0152] | 146
– | COc1cc(CC(=O)N2CCCOCC2)ccc1CN1CCCN(c2ccc(OC)c(OCCCC(C)(F)F)c2)C1=O [CU0146] | 12.5
– | COc1ccccc1CN1CCCN(c2ccc(OC)c(OCCCC(C)(F)F)c2)C1=O [CU0143] | 23.3
– | CC/C=C\COc1cc(N2CCCN(Cc3cc(F)ccc3OC)C2=O)ccc1OC [CU0194] | 94.6
– | CCCCCOc1cc(N2CCCN(Cc3ccccc3C3CC3)C2=O)ccc1OC [CU0015] | 519
– | CCCCCOc1cc(N2CCCN(Cc3cc(OC)cc(-c4cnn(C5CCN(C)CC5)c4)c3)C2=O)ccc1OC [CU0158] | 27.8
– | COc1ccc(F)cc1CN1CCCN(c2ccc(OC)c(OCC3CC4(CCC4)C3)c2)C1=O [CU0198] | 70.1
– | CCCCCOc1cc(N2CCN(Cc3ccnc4c3ccn4CC(=O)N(C)C)C2=O)ccc1C1CC1 [CU0034] | 1230
– | CCCCCOc1cc(N2CCCN(Cc3ccc(F)cc3OC)C2=O)ccc1OC [CU0165] | 36
– | CCCCCOc1cc(N2CCCN(Cc3ccnc4c3ccn4CC3=NCCN3C)C2=O)ccc1OC [CU0251] | 34
– | COc1ccc(F)cc1CN1CCCN(c2ccc(OC)c(OCCC3CCCCC3)c2)C1=O [CU0216] | 27
< 10 | CCCCCOc1cc(N2CCCN(Cc3ccnc4c3c(Cl)cn4Cc3nnnn3C)C2=O)ccc1OC [CU0570] | –
– | CCCCCOc1cc(N2CCCN(Cc3cccc(C4=CCNCC4)c3OC)C2=O)ccc1OC [CU0155] | 43.7
– | COc1ccc(F)cc1CN1CCCN(c2ccc(OC)c(OCC[C@@H]3C[C@@H]4CC[C@H]3C4)c2)C1=O [CU0184] | 32.4
50 (≈ 27.5 µg/mL) | CCCCCOc1cc(N2CCCN(Cc3ccc(CNC(=O)c4cnnn4C)cc3OC)C2=O)ccc1OC [CU0544] | –
– | CCCCCOc1cc(N2CCCN(Cc3ccc(C(O)c4nccn4C)cc3OC)C2=O)ccc1OC (centres unmarked) [CU0200] | 8.9
– | CCCCCOc1cc(N2CCCN(Cc3cccc(N4CCC(C(C)(C)O)C4)c3F)C2=O)ccc1OC (centres unmarked) [CU0131] | 151
13 (≈ 7.85 µg/mL) | CCCCCOc1cc(N2CCCN(Cc3ccnc4c3c(Cl)cn4CCN3CCCS3(=O)=O)C2=O)ccc1OC [CU0577] | –
– | COc1ccc(N2CCCN(Cc3ccnc4c3ccn4CC(=O)N(C)C)C2=O)cc1OCCC1CCCC1 [CU0259] | 75
– | CCCCCOc1cc(N2CCCN(Cc3ccnc4c3ccn4CCC3CCOCC3)C2=O)ccc1OC [CU0249] | 386
71 (≈ 38.9 µg/mL) | CCCCCOc1cc(N2CCCN(Cc3ccc(CNC(=O)c4cnccn4)cc3OC)C2=O)ccc1OC [CU0677] | –

solubility kinetic [1] [µM] | SMILES | IC50 (Human C5) [nM]
– | COc1ccc(F)cc1CN1CCCN(c2ccc(OC)c(OCCC[C@H]3C[C@@H]3C)c2)C1=O [CU0205] | 5.1
– | CCCCCOc1cc(N2CCCN(Cc3ccc(Cc4nnn[nH]4)cc3OC)C2=O)ccc1OC [CU0209] | 55.2
– | CCCCCOc1cc(N2CCN(Cc3ccccc3Cl)C2=O)ccc1OC [CU0009] | 203
– | CCCCCOc1cc(N2CCCN(Cc3ccc(CC#N)cc3OC)C2=O)ccc1OC [CU0210] | 32.9
– | CCCCCOc1cc(N2CCCN(Cc3ccc(C)c4c3ccn4CC(=O)N(C)C)C2=O)ccc1OC [CU0229] | 88.9
– | CCCCCOc1cc(N2CCCN(Cc3cccc4c3cc(C)n4CC(=O)N(C)C)C2=O)ccc1OC [CU0238] | 61
– | COc1cc(CC(=O)N(C)C)ccc1CN1CCCN(c2ccc(OC)c(OCc3ccccc3)c2)C1=O [CU0199] | 370
– | CCCCCOc1cc(N2CCCN(Cc3cc(F)cc4c3ccn4CC(=O)N(C)C)C2=O)ccc1OC [CU0237] | 43.9
> 500 | COc1cc(CCNC2CCN(C)C2=O)ccc1CN1CCCN(c2ccc(OC)c(OCCCC3CC3)c2)C1=O (centres unmarked) [CU0643] | –
364 (≈ 171 µg/mL) | CCCCCOc1cc(N2CC[C@H](C)N(Cc3cccc4[nH]cc(Cl)c34)C2=O)ccc1OC [CU0623] | –
– | C/C=C\CCCOc1cc(N2CCCN(Cc3cc(F)ccc3OC)C2=O)ccc1OC [CU0225] | 29.1
– | COc1ccc(F)cc1CN1CCCN(c2ccc(OC)c(OCCCC(C)C)c2)C1=O [CU0217] | 18.3
< 10 | CCCCCOc1cc(N2CCCN(Cc3ccnc4c3c(Cl)cn4Cc3nnn(C)n3)C2=O)ccc1OC [CU0556] | –
– | CCCCCOc1cc(N2CCCN(Cc3cccc(N4CCN(C5COC5)CC4)c3F)C2=O)ccc1OC [CU0130] | 147
139 (≈ 72.2 µg/mL) | CCCCCOc1cc(N2CCCN(Cc3ccnc4c3ccn4[C@@H]3CCN(C)C3=O)C2=O)ccc1OC [CU0667] | –
– | CCCCCOc1cc(N2CCCN(Cc3cccc(-c4cnn(C(C)OCC)c4)c3F)C2=O)ccc1OC (centres unmarked) [CU0125] | 73.6
11 (≈ 5.96 µg/mL) | CCCCCOc1cc(N2CCCN(Cc3cncc4c3c(Cl)cn4CC(=O)N(C)C)C2=O)ccc1OC [CU0673] | –
– | CCCCCOc1cc(N2CCCN(Cc3ccc(CCn4ccnn4)cc3OC)C2=O)ccc1OC [CU0147] | 46.4
< 10 | COc1ccc(N2CCCN(Cc3ccnc4c3c(Cl)cn4CC(=O)N(C)C)C2=O)cc1OCCCC(C)(C)C [CU0595] | –
– | CCCCCOc1cc(N2CCCN(Cc3cccc4nc(CC)oc34)C2=O)ccc1OC [CU0067] | 946

SMILES | solubility kinetic [1] [µM] | IC50 (Human C5) [nM]
CCCCCOc1cc(N2CCCN(Cc3ccc(CC(=O)N(C)C4CCN(CC)C4)cc3OC)C2=O)ccc1OC (centres unmarked) [CU0177] | 351 (≈ 204 µg/mL) | 21.1
